Molecules are shown by their SMILES.

Chain of human calcitonin receptor (CTR) and RAMP3 (AMY3) in COS-7 cells (P30988 25-474): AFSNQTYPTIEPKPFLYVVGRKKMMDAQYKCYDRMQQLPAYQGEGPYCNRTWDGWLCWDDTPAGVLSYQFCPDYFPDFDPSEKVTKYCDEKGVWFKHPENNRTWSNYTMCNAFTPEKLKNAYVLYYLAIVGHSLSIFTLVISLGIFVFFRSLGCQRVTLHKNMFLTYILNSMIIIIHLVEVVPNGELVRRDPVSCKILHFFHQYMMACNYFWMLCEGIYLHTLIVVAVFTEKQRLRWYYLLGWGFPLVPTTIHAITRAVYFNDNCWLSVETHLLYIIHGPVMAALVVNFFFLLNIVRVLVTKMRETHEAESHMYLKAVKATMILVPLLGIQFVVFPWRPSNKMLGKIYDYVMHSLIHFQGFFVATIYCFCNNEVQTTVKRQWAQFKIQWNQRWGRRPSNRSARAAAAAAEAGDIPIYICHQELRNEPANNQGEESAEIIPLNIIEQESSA
Chain of human calcitonin receptor (CTR) and RAMP3 (AMY3) in COS-7 cells (O60896 24-148): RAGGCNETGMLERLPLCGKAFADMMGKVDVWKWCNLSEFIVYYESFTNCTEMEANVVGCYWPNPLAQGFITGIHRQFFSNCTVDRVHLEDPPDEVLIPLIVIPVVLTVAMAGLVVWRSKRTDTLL

This test addresses human calcitonin receptor (CTR) and RAMP3 (AMY3) in COS-7 cells (Homo sapiens, UniProt O60896+P30988). Briefly: Amylin Receptor cAMP Assay I. The format is cell-based. The settings on record: values marked *: Amylin Receptor cAMP Assay I; COS-7/AMY3 cells; read-out: Amylin Receptor cAMP Stimulation Activity: EC50. The text has this:
Amylin Receptor cAMP Assay I
AMYRs are heterodimers of the class B calcitonin (CT) G-protein-coupled receptor (CTR) and receptor activity-modifying proteins (RAMPs). All three RAMPs can interact with the CTR and form AMY1, AMY2, AMY3 with RAMP1, RAMP2 and RAMP3, respectively. Like other class B1 GPCRs, the CT receptor family is canonically coupled to Gs-mediated cAMP production, and measurement of cAMP accumulation has been the primary assay used to determine peptide selectivity and potency.
To optimize functional activity directed toward Gas coupling, COS-7 cells were stably transfected with human calcitonin receptor (CTR) and RAMP3, simultaneously. 100× concentration of compound working solutions were prepared (Agilent Technologies Bravo) with 4-fold serial dilution in 384-well Echo LDV plate (Labcyte, Cat #LP-0200). 100 nL/well 100× concentration of compound working solutions were moved to 384-well white low volume plate (Greiner, Cat #784075) using Labcyte ECHO550. 1×10^5 cells/mL COS-7/CTR or COS-7/AMY3 (HD Biosciences) cell suspensions prepared with assay buffer [DPBS containing 0.5 mM IBMX (Sigma, Cat #15879) and 0.1% BSA (GENVIEW, Cat #FA016-100 g)], 10 μL cell suspensions were added to each well of previous generated assay plate which already contains 100 nL compound at 100× concentration using ThermoFisher Multidrop Combi (1000 cells/well). Seal the plate and incubate at 37° C. with 5% CO2 for 30 min.
After incubation, the cAMP assay signal was generated using cAMP Hi-range Kit (Cisbio). 5 μL cAMP-d2 working solution was added to each well, followed by 5 μL Anti-cAMP antibody-cryptate working solution which was added to each well using ThermoFisher Multidrop Combi. The samples were then incubated at room temperature for 1 hour protected from light. the fluorescence was read at 665 and 615 nm with Reader PerkinElmer EnVision.
Consider `Cc1nnc(-c2c(CCc3ccc(F)cc3)nc(CC(C)C)c(C(N)=O)c2-c2cc3ccccc3s2)o1` [Compound 127, 4-(1-benzothiophen-2-yl)-6-[2-(p-fluorophenyl)ethyl]-2-isobutyl-5-(5-methyl-1,3,4-oxadiazol-2-yl)nicotinamide], for which the EC50 (commonly the concentration that produces a half-maximal response) turned out to be 495 nM. Turning to `Cc1nnc(-c2c(CCc3cnn(C)c3)nc(CC(C)C)c(C(N)=O)c2-c2ccc(C(=O)NCc3ccc(F)c(F)c3)s2)o1` [Compound 184, 4-(5-((3,4-difluorobenzyl)carbamoyl)thiophen-2-yl)-2-isobutyl-5-(5-methyl-1,3,4-oxadiazol-2-yl)-6-(2-(1-methyl-1H-pyrazol-4-yl)ethyl)nicotinamide], the EC50 is 1070 nM. The same measure for `Cc1nnc(-c2c(CC(C)c3ccc(F)cc3)nc(CC(C)C)c(C(N)=O)c2-c2ccc(C(=O)N[C@@H]3CCc4ncccc43)s2)o1` (stereo partly drawn) [Compound 191, 4-(5-(((R)-6,7-dihydro-5H-cyclopenta[b]pyridin-5-yl)carbamoyl)thiophen-2-yl)-6-(2-(4-fluorophenyl)propyl)-2-isobutyl-5-(5-methyl-1,3,4-oxadiazol-2-yl)nicotinamide]: 1080 nM; for `CCc1nc(CC(C)C)c(C(N)=O)c(-c2ccc(C(=O)NCc3ccc(F)c(F)c3)s2)c1-c1nnc(C)o1` [Compound 112, 4-[5-[(3,4-difluorophenyl)methylcarbamoyl]-2-thienyl]-6-ethyl-2-isobutyl-5-(5-methyl-1,3,4-oxadiazol-2-yl)pyridine-3-carboxamide]: greater than 11400 nM. The same measure for `Cc1nnc(-c2c(CN3Cc4ccccc4C3=O)nc(CC(C)C)c(C(N)=O)c2-c2ccc(C(=O)NCc3ccc(F)c(F)c3)s2)o1` [Compound 181]: 9320 nM; for `Cc1nc(-c2c(CCc3ccc(F)cc3)nc(CC(C)C)c(C(N)=O)c2-c2ccc(C(=O)NCc3ccc(F)c(F)c3)s2)co1` [Compound 169, 4-(5-((3,4-difluorobenzyl)carbamoyl)thiophen-2-yl)-6-(4-fluorophenethyl)-2-isobutyl-5-(2-methyloxazol-4-yl)nicotinamide]: 122 nM; for `Cc1nnc(-c2c(CCc3ccc(F)cc3)nc(CC(C)C)c(C(N)=O)c2-c2ccc(C(=O)N[C@@H]3CCc4c(F)cccc43)s2)o1` [Compound 119, (R)-4-(5-((4-fluoro-2,3-dihydro-1H-inden-1-yl)carbamoyl)thiophen-2-yl)-6-(4-fluorophenethyl)-2-isobutyl-5-(5-methyl-1,3,4-oxadiazol-2-yl)nicotinamide]: 2.7 nM. For `Cc1nnc(-c2c(CCc3ccc(F)cc3)nc(CC(C)C)c(C(N)=O)c2-c2ccc(C(=O)N[C@H]3CCc4ccccc43)s2)o1` [Compound 118, (S)-4-(5-((2,3-dihydro-1H-inden-1-yl)carbamoyl)thiophen-2-yl)-6-(4-fluorophenethyl)-2-isobutyl-5-(5-methyl-1,3,4-oxadiazol-2-yl)nicotinamide], the EC50 was determined as 211 nM. With `Cc1nnc(-c2c(COc3ccc(F)cc3)nc(CC(C)C)c(C(N)=O)c2-c2ccc(C(=O)NCc3ccc(F)c(F)c3)s2)o1` [Compound 164], the EC50 turned out to be 325 nM. The same measure for `CC(C)Cc1nc(CCc2ccc(F)cc2)c(-c2ccn(C)n2)c(-c2ccc(C(=O)NCc3ccc(F)c(F)c3)s2)c1C(N)=O` [Compound 204, 4-(5-((3,4-difluorobenzyl)carbamoyl)thiophen-2-yl)-6-(4-fluorophenethyl)-2-isobutyl-5-(1-methyl-1H-pyrazol-3-yl)nicotinamide]: 67.3 nM; for `Cc1nnc(-c2c(CCc3ccc(F)cc3)nc(CC(C)C)c(C(N)=O)c2-c2ncc(C(=O)NCc3ccc(F)c(F)c3)s2)o1` [Compound 125, N-(3,4-difluorophenyl)methyl-2-{5-carbamoyl-2-[2-(p-fluorophenyl)ethyl]-6-isobutyl-3-(5-methyl-1,3,4-oxadiazol-2-yl)-4-pyridyl}-1,3-thiazole-5-carboxamide]: 212 nM; for `Cc1nc(-c2c(CCc3ccc(F)cc3)nc(CC(C)C)c(C(N)=O)c2-c2ccc(C(=O)NCc3ccc(F)c(F)c3)s2)no1` [Compound 154, N-(3,4-difluorophenyl)methyl-5-{5-carbamoyl-2-[2-(p-fluorophenyl)ethyl]-6-isobutyl-3-(5-methyl-1,2,4-oxadiazol-3-yl)-4-pyridyl}-2-thenamide]: 68.7 nM.

As to `Cc1noc(-c2c(CCc3ccc(F)cc3)nc(CC(C)C)c(C(N)=O)c2-c2ccc(C(=O)NCc3ccc(F)c(F)c3)s2)n1` [Compound 102, N-(3,4-difluorophenyl)methyl-5-{5-carbamoyl-2-[2-(p-fluorophenyl)ethyl]-6-isobutyl-3-(3-methyl-1,2,4-oxadiazol-5-yl)-4-pyridyl}-2-thenamide], the half-maximal effective concentration (EC50) is 85.9 nM.

Consider `CC(C)Cc1nc(CCc2ccc(F)cc2)c(-c2nnc(C(C)C)o2)c(-c2ccc(C(=O)NCc3ccc(F)c(F)c3)s2)c1C(N)=O` [Compound 147, N-(3,4-difluorophenyl)methyl-5-{5-carbamoyl-2-[2-(p-fluorophenyl)ethyl]-6-isobutyl-3-(5-isopropyl-1,3,4-oxadiazol-2-yl)-4-pyridyl}-2-thenamide], for which the EC50 was determined as 2.3 nM. Then `Cc1ncoc1-c1c(CCc2ccc(F)cc2)nc(CC(C)C)c(C(N)=O)c1-c1ccc(C(=O)NCc2ccc(F)c(F)c2)s1` [Compound 153, N-(3,4-difluorophenyl)methyl-5-{5-carbamoyl-2-[2-(p-fluorophenyl)ethyl]-6-isobutyl-3-(4-methyl-1,3-oxazol-5-yl)-4-pyridyl}-2-thenamide], with 12 nM; and `Cc1nnc(-c2c(CCc3ccc(F)cc3)nc(CC(C)C)c(C(N)=O)c2-c2ccc(C(=O)NCc3ccc(F)c(F)c3)s2)s1` [Compound 149, N-(3,4-difluorophenyl)methyl-5-{5-carbamoyl-2-[2-(p-fluorophenyl)ethyl]-6-isobutyl-3-(5-methyl-1,3,4-thiadiazol-2-yl)-4-pyridyl}-2-thenamide], with 19.1 nM. The same measure for `Cc1nnc(-c2c(CCc3ccc(F)cc3)nc(CC(C)C)c(C(N)=O)c2-c2cc3cccc(N[C@@H]4CCc5ccccc54)c3s2)o1` [Compound 137, (R)-4-(7-((2,3-dihydro-1H-inden-1-yl)amino)benzo[b]thiophen-2-yl)-6-(4-fluorophenethyl)-2-isobutyl-5-(5-methyl-1,3,4-oxadiazol-2-yl)nicotinamide]: 1.3 nM; for `Cc1nnc(-c2c(CCC3CCOCC3)nc(CC(C)C)c(C(N)=O)c2-c2cc3ccnc(N[C@@H]4CCc5ncccc54)c3s2)o1` [Compound 196, (R)-4-(7-((6,7-dihydro-5H-cyclopenta[b]pyridin-5-yl)amino)thieno[2,3-c]pyridin-2-yl)-2-isobutyl-5-(5-methyl-1,3,4-oxadiazol-2-yl)-6-(2-(tetrahydro-2H-pyran-4-yl)ethyl)nicotinamide]: 279 nM; for `Cc1nnc(-c2c(CCN3CCCCC3)nc(CC(C)C)c(C(N)=O)c2-c2ccc(C(=O)NCc3ccc(F)c(F)c3)s2)o1` [Compound 179, 4-(5-((3,4-difluorobenzyl)carbamoyl)thiophen-2-yl)-2-isobutyl-5-(5-methyl-1,3,4-oxadiazol-2-yl)-6-(2-(piperidin-1-yl)ethyl)nicotinamide]: greater than 1000 nM. The same measure for `Cc1cc(-c2c(CCc3ccc(F)cc3)nc(CC(C)C)c(C(N)=O)c2-c2ccc(C(=O)NCc3ccc(F)c(F)c3)s2)ccn1` [Compound 160]: 26 nM; for `Cc1nnc(-c2c(CCc3ccc(F)cc3)nc(CC(C)C)c(C(N)=O)c2N2CCC(C(=O)NCc3ccc(F)c(F)c3)C2)o1` (stereo not drawn) [Compound 170, 4-(3-((3,4-difluorobenzyl)carbamoyl)pyrrolidin-1-yl)-6-(4-fluorophenethyl)-2-isobutyl-5-(5-methyl-1,3,4-oxadiazol-2-yl)nicotinamide]: 3720 nM; for `Cc1nnc(-c2c(CC(C)(C)c3ccc(F)cc3)nc(CC(C)C)c(C(N)=O)c2-c2ccc(C(=O)NCc3ccc(F)c(F)c3)s2)o1` [Compound 176, 4-(5-((3,4-difluorobenzyl)carbamoyl)thiophen-2-yl)-6-(2-(4-fluorophenyl)-2-methylpropyl)-2-isobutyl-5-(5-methyl-1,3,4-oxadiazol-2-yl)nicotinamide]: 1280 nM.

For the compound `Cc1ncc(-c2c(CCc3ccc(F)cc3)nc(CC(C)C)c(C(N)=O)c2-c2ccc(C(=O)NCc3ccc(F)c(F)c3)s2)o1` [Compound 152, N-(3,4-difluorophenyl)methyl-5-{5-carbamoyl-2-[2-(p-fluorophenyl)ethyl]-6-isobutyl-3-(2-methyl-1,3-oxazol-5-yl)-4-pyridyl}-2-thenamide], the EC50 stood at 11.5 nM. Consider `Cc1nnc(-c2c(CCc3ccc(F)cc3)nc(OC(C)C)c(C(N)=O)c2-c2ccc(C(=O)NCc3ccc(F)c(F)c3)s2)o1` [Compound 167, 4-(5-((3,4-difluorobenzyl)carbamoyl)thiophen-2-yl)-6-(4-fluorophenethyl)-2-isopropoxy-5-(5-methyl-1,3,4-oxadiazol-2-yl)nicotinamide], for which the EC50 is 336 nM.

Source of the values: US20250042916A1 (ACONCAGUA BIO, INC., priority 2023, published 2025).
